# According to patent US9060512B2, “Biocide compositions (III)” (Cognis IP Management GmbH, priority 2009, dated 2015):
# How the values were obtained:
# [1] = system: Hemp sesbania (Sesbania exaltata=Bayer Code=SEBEX); assay: Weed control with glyphosate IPA salt, optionally with adjuvant; assay type: in vivo
# Experimental: (§1) Two weeds, Velvet leaf (Abutilion theophrasti=Bayer Code: ABUTH) and Hemp sesbania (Sesbania exaltata=Bayer Code=SEBEX) were treated with a suboptimum rate of 270 g a.e./ha glyphosate IPA salt, optionally in the presence of N,N-Dimethyl levulinic acid amide as an adjuvant (spray volume: 200 l/ha) with three replications over a period of 21 days. Assessments took place for SEBEX after 10 and for ABUTH 20 days after treatment. The efficacy of the biocide/adjuvant composition was determined against a control where the number of weeds in a similar untreated area was set to 0%.
# [2] = system: Velvet leaf (Abutilion theophrasti=Bayer Code: ABUTH); assay: as above; assay type: in vivo; settings: 270 g/ha glyphosate IPA salt, spray volume 200 l/ha, 20 days after treatment, untreated area = 0%
# Experimental: as §1
Compound,"SEBEX Control (weed control) ([1]; 270 g/ha glyphosate IPA salt, spray volume 200 l/ha, 10 days after treatment, untreated area = 0%) [%-rel.]",ABUTH Control (weed control) [2] [%-rel.],"weed control performance of glyphosate on addition of adjuvant ([1]; summary in words, SEBEX and ABUTH)"
"CC(C)N.O=C(O)CNCP(=O)(O)O [C3, glyphosate IPA salt]",50,82,
"CC(=O)CCC(=O)N(C)C [Example 6, Levulinic acid dimethylamide]",,,improves the weed control performance of glyphosate significantly
